Source: US8802597B2, “Herbicidal pyrimidines” (E I du Pont de Nemours and Company, priority 2003, dated 2014)

How the values were obtained:
Assay in all cases: Test C pre/postemergence
Assay type in all cases: in vivo
Settings in all cases: Preemergence
[1] = test system: goosegrass (Eleusine indica)
Method in brief: (§1)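 Test compounds, formulated in a non-phytotoxic solvent mix with surfactant, were applied to freshly planted seeds and, at the same time, to emerged plants at 1- to 4-leaf stage (2 to 18 cm). After 12 to 14 days in the greenhouse, response was scored visually versus controls, 0 = no effect, 100 = complete control.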

[2] = test system: eastern black nightshade (Solanum ptycanthum)
Method in brief: as §1

soybean (Glycine max) = test system: soybean (Glycine max)
Method in brief: as §1

[3] = test system: johnsongrass (Sorghum halepense)
Method in brief: as §1

[4] = test system: common (oilseed) sunflower (Helianthus annuus)
Method in brief: as §1

[5] = test system: velvetleaf (Abutilon theophrasti)
Method in brief: as §1

kochia (Kochia scoparia) = test system: kochia (Kochia scoparia)
Method in brief: as §1

[6] = test system: cocklebur (Xanthium strumarium)
Method in brief: as §1

[7] = test system: bermudagrass (Cynodon dactylon)
Method in brief: as §1

[8] = test system: pigweed (Amaranthus retroflexus)
Method in brief: as §1

[9] = test system: common ragweed (Ambrosia elatior)
Method in brief: as §1

[10] = test system: lambsquarters (Chenopodium album)
Method in brief: as §1

[11] = 31 g ai/ha, scale 0 to 100, 0 no effect, 100 complete control
[12] = 62 g ai/ha, scale 0 to 100, 0 no effect, 100 complete control

CCOC(=O)Cc1nc(C2CC2)nc(N)c1Br [Compound 12]
90: Plant response rating, Cocklebur ([6]; 250 g ai/ha, scale 0 to 100)
40: Plant response rating, Lambsquarters ([10]; 125 g ai/ha, scale 0 to 100)
0: Plant response rating, Goosegrass [1, 11] | Plant response rating, Goosegrass [1, 12] | Plant response rating, Goosegrass ([1]; 125 g ai/ha, scale 0 to 100) | Plant response rating, Goosegrass ([1]; 250 g ai/ha, scale 0 to 100) | Plant response rating, Johnsongrass [3, 11] | Plant response rating, Johnsongrass [3, 12] | Plant response rating, Sunflower [4, 11] | Plant response rating, Sunflower [4, 12] | Plant response rating, Sunflower ([4]; 125 g ai/ha, scale 0 to 100) | Plant response rating, Velvetleaf [5, 11] | Plant response rating, Kochia (kochia (Kochia scoparia); [11]) | Plant response rating, Bermudagrass [7, 11] | Plant response rating, Bermudagrass [7, 12] | Plant response rating, Bermudagrass ([7]; 125 g ai/ha, scale 0 to 100) | Plant response rating, Lambsquarters [10, 11]
50: Plant response rating, Nightshade [2, 12] | Plant response rating, Soybean (soybean (Glycine max); [12]) | Plant response rating, Velvetleaf ([5]; 125 g ai/ha, scale 0 to 100) | Plant response rating, Kochia (kochia (Kochia scoparia); [12]) | Plant response rating, Kochia (kochia (Kochia scoparia); 125 g ai/ha, scale 0 to 100) | Plant response rating, Cocklebur [6, 11] | Plant response rating, Cocklebur [6, 12] | Plant response rating, Pigweed [8, 12] | Plant response rating, Pigweed ([8]; 125 g ai/ha, scale 0 to 100)
60: Plant response rating, Nightshade ([2]; 125 g ai/ha, scale 0 to 100)
85: Plant response rating, Sunflower ([4]; 250 g ai/ha, scale 0 to 100) | Plant response rating, Kochia (kochia (Kochia scoparia); 250 g ai/ha, scale 0 to 100) | Plant response rating, Cocklebur ([6]; 125 g ai/ha, scale 0 to 100) | Plant response rating, Pigweed ([8]; 250 g ai/ha, scale 0 to 100) | Plant response rating, Ragweed ([9]; 250 g ai/ha, scale 0 to 100)
10: Plant response rating, Pigweed [8, 11] | Plant response rating, Ragweed [9, 12] | Plant response rating, Lambsquarters [10, 12]
20: Plant response rating, Bermudagrass ([7]; 250 g ai/ha, scale 0 to 100) | Plant response rating, Ragweed ([9]; 125 g ai/ha, scale 0 to 100)
5: Plant response rating, Johnsongrass ([3]; 125 g ai/ha, scale 0 to 100) | Plant response rating, Johnsongrass ([3]; 250 g ai/ha, scale 0 to 100) | Plant response rating, Velvetleaf [5, 12]
70: Plant response rating, Soybean (soybean (Glycine max); 250 g ai/ha, scale 0 to 100) | Plant response rating, Velvetleaf ([5]; 250 g ai/ha, scale 0 to 100) | Plant response rating, Lambsquarters ([10]; 250 g ai/ha, scale 0 to 100)
80: Plant response rating, Nightshade ([2]; 250 g ai/ha, scale 0 to 100)

COC(=O)Cc1nc(C2CC2)nc(N)c1Br [Compound 13]
40: Plant response rating, Cocklebur [6, 11]
80: Plant response rating, Velvetleaf ([5]; 125 g ai/ha, scale 0 to 100) | Plant response rating, Kochia (kochia (Kochia scoparia); 125 g ai/ha, scale 0 to 100)
50: Plant response rating, Sunflower [4, 12] | Plant response rating, Pigweed [8, 11] | Plant response rating, Lambsquarters [10, 11]
85: Plant response rating, Kochia (kochia (Kochia scoparia); 250 g ai/ha, scale 0 to 100) | Plant response rating, Pigweed ([8]; 125 g ai/ha, scale 0 to 100) | Plant response rating, Ragweed ([9]; 250 g ai/ha, scale 0 to 100) | Plant response rating, Lambsquarters [10, 12]
5: Plant response rating, Johnsongrass ([3]; 125 g ai/ha, scale 0 to 100) | Plant response rating, Sunflower [4, 11]
95: Plant response rating, Cocklebur ([6]; 250 g ai/ha, scale 0 to 100)
60: Plant response rating, Soybean (soybean (Glycine max); [12]) | Plant response rating, Sunflower ([4]; 125 g ai/ha, scale 0 to 100) | Plant response rating, Velvetleaf [5, 11] | Plant response rating, Velvetleaf [5, 12] | Plant response rating, Kochia (kochia (Kochia scoparia); [12]) | Plant response rating, Cocklebur [6, 12] | Plant response rating, Pigweed [8, 12] | Plant response rating, Ragweed [9, 12]
70: Plant response rating, Ragweed ([9]; 125 g ai/ha, scale 0 to 100)
0: Plant response rating, Goosegrass [1, 11] | Plant response rating, Goosegrass [1, 12] | Plant response rating, Goosegrass ([1]; 125 g ai/ha, scale 0 to 100) | Plant response rating, Goosegrass ([1]; 250 g ai/ha, scale 0 to 100) | Plant response rating, Nightshade [2, 11] | Plant response rating, Nightshade [2, 12] | Plant response rating, Soybean (soybean (Glycine max); [11]) | Plant response rating, Johnsongrass [3, 11] | Plant response rating, Johnsongrass [3, 12] | Plant response rating, Bermudagrass [7, 11] | Plant response rating, Bermudagrass [7, 12] | Plant response rating, Bermudagrass ([7]; 125 g ai/ha, scale 0 to 100) | Plant response rating, Bermudagrass ([7]; 250 g ai/ha, scale 0 to 100)
45: Plant response rating, Johnsongrass ([3]; 250 g ai/ha, scale 0 to 100) | Plant response rating, Kochia (kochia (Kochia scoparia); [11]) | Plant response rating, Ragweed [9, 11]
90: Plant response rating, Nightshade ([2]; 125 g ai/ha, scale 0 to 100) | Plant response rating, Nightshade ([2]; 250 g ai/ha, scale 0 to 100) | Plant response rating, Soybean (soybean (Glycine max); 125 g ai/ha, scale 0 to 100) | Plant response rating, Soybean (soybean (Glycine max); 250 g ai/ha, scale 0 to 100) | Plant response rating, Sunflower ([4]; 250 g ai/ha, scale 0 to 100) | Plant response rating, Velvetleaf ([5]; 250 g ai/ha, scale 0 to 100) | Plant response rating, Cocklebur ([6]; 125 g ai/ha, scale 0 to 100) | Plant response rating, Pigweed ([8]; 250 g ai/ha, scale 0 to 100) | Plant response rating, Lambsquarters ([10]; 125 g ai/ha, scale 0 to 100) | Plant response rating, Lambsquarters ([10]; 250 g ai/ha, scale 0 to 100)
